Measured values from patent US8173645B2 (Takeda San Diego, Inc., priority 2007, dated 2012).

Target: T1, glucokinase (GK), residues 12-465 of the human enzyme (Homo sapiens, UniProt P35557)
T1 construct: I.D. No. 1 corresponds to residues 12-465 of glucokinase; made in house; host or cells: E. coli DH10b-Tlr
T1 sequence (P35557 with tags, fused parts or gaps isoform P35557-2): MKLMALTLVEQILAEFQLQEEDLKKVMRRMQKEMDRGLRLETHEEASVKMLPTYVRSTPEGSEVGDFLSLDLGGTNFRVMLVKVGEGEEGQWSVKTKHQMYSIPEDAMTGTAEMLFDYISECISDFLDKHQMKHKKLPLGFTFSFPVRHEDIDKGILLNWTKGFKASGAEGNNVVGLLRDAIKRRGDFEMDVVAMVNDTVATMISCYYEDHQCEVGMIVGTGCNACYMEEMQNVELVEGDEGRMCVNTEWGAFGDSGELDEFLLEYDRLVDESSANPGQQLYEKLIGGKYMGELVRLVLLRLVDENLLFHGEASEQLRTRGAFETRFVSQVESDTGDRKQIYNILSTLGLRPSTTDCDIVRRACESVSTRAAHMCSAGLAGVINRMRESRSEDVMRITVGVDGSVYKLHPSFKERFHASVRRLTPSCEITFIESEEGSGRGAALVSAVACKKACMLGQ
Assay: Enzymatic glucokinase activity assay (KinaseGlo luminescence, ATP consumption)
Assay type: biochemical
Details: 5 μM ATP, 5 mM Glucose; for EC50: GK activation, Kact = concentration giving 50% of the maximal increase in GK activity, read-out: pKact; for Emax: calculated maximal gain in GK enzyme activity at a saturating concentration of the compound, read-out: % ACTmax
Excerpt: The activity of compounds as glucokinase activators may be assayed in vitro, in vivo or in a cell line. Provided below is an enzymatic glucokinase activity assay.
Purified glucokinase may be obtained as follows. DNA encoding residues 12-465 of the full-length sequence of the human enzyme may be amplified by PCR and cloned into the HindIII and EcoRI sites of pFLAG-CTC (Sigma). SEQ. I.D. No. 1 corresponds to residues 12-465 of glucokinase.
The expression of recombinant glucokinase protein may be carried out by transformation and growth of DH10b-Tlr E. coli cells incorporating the (pFLAG-CTC) plasmid in LB media. Protein expression can be induced in this system by the addition of IPTG to the culture medium.
Recombinant protein may be isolated from cellular extracts by passage over Sepharose Q Fast Flow resin (Pharmacia). This partially purified GK extract may then be further purified by a second passage over Poros HQ 10 (Applied Biosystems). The purity of GK may be determined on denaturing SDS-PAGE gel. Purified GK may then be concentrated to a final concentration of 20.0 mg/ml. After flash freezing in liquid nitrogen, the proteins can be stored at −78° C. in a buffer containing 25 mM TRIS-HCl pH 7.6, 50 mM NaCl, and 0.5 mM TCEP.
The activation properties of compounds for GK may be determined using a black 384-well-plate format under the following reaction conditions: 25 mM Hepes pH 7.2, 25 mM NaCl, 10 mM MgCl2, 0.01% Brij35, 1 mM DTT, 5 μM ATP, 5 mM Glucose 2% DMSO. The amount of ATP consumed may be determined quantitatively by addition of equal volume of luciferase reagent (luciferase+beetle luciferin—KinaseGlo Luminescent Kinase Assay kit from Promega). The luminescence intensity may be measured by using the Analyst HT from LJL Biosystems.
The assay reaction may be initiated as follows: 4 μl of substrate mixture (12.5 μM ATP and 12.5 mM Glucose) was added to each well of the plate, followed by the addition of 2 μl of activator (2 fold serial dilutions for 11 data points for each activator) containing 10% DMSO. 4 μL of 1.25 nM GK solution may be added to initiate the reaction. The reaction mixture may then be incubated at room temperature for 60 min, and quenched and developed by addition of 10 μL of luciferase reagent. Luminescence intensities of the resulting reaction mixtures may be measured after a 10 min incubation at room temperature. The luminescence intensity may be measured by using the Analyst HT from LJL Biosystems.
pKact and % ACTmax values may be calculated by non-linear curve fitting of the compound concentrations and luminescence intensities to a standard inhibition/activation equation.

SMILES | EC50 [µM] | Emax [%]
N#Cc1cccc(NC(=S)N2CCN([C@@H](CC3CCCCC3)C(=O)Nc3nccs3)C(=O)C2)c1 [Example 116, (S)-2-(4-(3-cyanophenylcarbamothioyl)-2-oxopiperazin-1-yl)-3-cyclohexyl-N-(thiazol-2-yl)propanamide] | ≥ 3.16 | ≥ 119
O=C(Nc1nccs1)[C@H](CC1CCCCC1)N1CCN(S(=O)(=O)Cc2ccc(C(F)(F)F)cc2)CC1=O [Example 210, (S)-3-cyclohexyl-2-(2-oxo-4-(4-(trifluoromethyl)benzylsulfonyl)piperazin-1-yl)-N-(thiazol-2-yl)propanamide] | ≥ 3.16 | ≤ 74
O=C(Nc1nccs1)[C@H](CC1CCCCC1)N1CCN(C(=O)Nc2ccc(C(F)(F)F)cc2)CC1=O [Example 142, (S)-4-(3-cyclohexyl-1-oxo-1-(thiazol-2-ylamino)propan-2-yl)-3-oxo-N-(4-(trifluoromethyl)phenyl)piperazine-1-carboxamide] | ≥ 3.16 | ≤ 74
O=C(Nc1nccs1)[C@H](CC1CCCCC1)N1CCN(S(=O)(=O)c2ccc(C(F)(F)F)cc2)CC1=O [Example 55, (S)-3-cyclohexyl-2-(2-oxo-4-(4-(trifluoromethyl)phenylsulfonyl)piperazin-1-yl)N-(thiazol-2-yl)propanamide] | 0.794 to 1.26 | ≤ 74
Cc1oncc1S(=O)(=O)N1CCN([C@@H](CC2CCCCC2)C(=O)Nc2nccs2)C(=O)C1 [Example 60, (S)-3-cyclohexyl-2-(4-(5-methylisoxazol-4-ylsulfonyl)-2-oxopiperazin-1-yl)-N-(thiazol-2-yl)propanamide] | 0.794 to 1.26 | ≤ 74
Cc1cc(C)cc(S(=O)(=O)N2CCN([C@@H](CC3CCCCC3)C(=O)Nc3nccs3)C(=O)C2)c1 [Example 195, (S)-3-cyclohexyl-2-(4-(3,5-dimethylphenylsulfonyl)-2-oxopiperazin-1-yl)-N-(thiazol-2-yl)propanamide] | ≤ 0.631 | ≥ 119
N#Cc1ccc(NC(=S)N2CCN([C@@H](CC3CCCCC3)C(=O)Nc3nccs3)C(=O)C2)cc1 [Example 126, (S)-2-(4-(4-cyanophenylcarbamothioyl)-2-oxopiperazin-1-yl)-3-cyclohexyl-N-(thiazol-2-yl)propanamide] | 0.794 to 1.26 | 97.1 to 107
O=C(Nc1nccs1)[C@H](CC1CCCCC1)N1CCN(C(=S)NCc2cccc(F)c2)CC1=O [Example 119, (S)-3-cyclohexyl-2-(4-(3-fluorobenzylcarbamothioyl)-2-oxopiperazin-1-yl)-N-(thiazol-2-yl)propanamide] | 0.794 to 1.26 | 97.1 to 107
CC(C)Oc1ccc(S(=O)(=O)N2CCN([C@@H](CC3CCCCC3)C(=O)Nc3nccs3)C(=O)C2)cc1 [Example 101, (S)-3-cyclohexyl-2-(4-(4-isopropoxyphenylsulfonyl)-2-oxopiperazin-1-yl)-N-(thiazol-2-yl)propanamide] | ≤ 0.631 | ≤ 74
CC(=O)Nc1nc(C)c(S(=O)(=O)N2CCN([C@@H](CC3CCCCC3)C(=O)Nc3nccs3)C(=O)C2)s1 [Example 197, (S)-2-(4-(2-acetamido-4-methylthiazol-5-ylsulfonyl)-2-oxopiperazin-1-yl)-3-cyclohexyl-N-(thiazol-2-yl)propanamide] | ≥ 3.16 | 97.1 to 107
CN1CCOc2cc(S(=O)(=O)N3CCN([C@@H](CC4CCCCC4)C(=O)Nc4nccs4)C(=O)C3)ccc21 [Example 44, (S)-3-cyclohexyl-2-(4-(4-methyl-3,4-dihydro-2H-benzo[b][1,4]oxazin-7-ylsulfonyl)-2-oxopiperazin-1-yl)-N-(thiazol-2-yl)propanamide] | ≤ 0.631 | 97.1 to 107
O=C(Nc1nccs1)[C@H](CC1CCCCC1)N1CCN(C(=O)Nc2ccc(Cl)c(Cl)c2)CC1=O [Example 131, (S)-4-(3-cyclohexyl-1-oxo-1-(thiazol-2-ylamino)propan-2-yl)-N-(3,4-dichlorophenyl)-3-oxopiperazine-1-carboxamide] | ≥ 3.16 | ≤ 74
